Data: paper PMC6325233, “A Novel Actin Binding Drug with In Vivo Efficacy” (Antimicrobial Agents and Chemotherapy, 2018)

Legend:
[1] = test system: rabbit skeletal muscle filamentous actin; assay: In vitro actin filament microscopy; assay type: biochemical; details: 24 μg actin with 4 or 8 μg native occidiofungin (8 μg alkyne-OF), 15 min
Description: Purified rabbit skeletal muscle filamentous actin (catalog number AKF99) and G-actin (catalog number AKL95) were purchased from Cytoskeleton, Inc. Actin was reconstituted in Milli-Q water to achieve a stock concentration of 0.4 mg/ml in a buffer that consisted of 5 mM Tris-HCl (pH 8.0), 0.2 mM CaCl2, 0.2 mM ATP, 2 mM MgCl2, and 5% (wt/vol) sucrose as directed by the supplier. This solution was stored at −80°C in 50-μl aliquots until use. Immediately before use, each aliquot was thawed by placing it in a 37°C water bath for 5 min and then at room temperature. For all studies, 24 μg of F- or G-actin was used with 8 μg alkyne-OF. F-actin filaments were reacted with native occidiofungin for 15 min at room temperature at molar ratios of 1:10 (24 μg actin to 8 μg native occidiofungin) and 1:5 (24 μg actin to 4 μg native occidiofungin). As per the manufacturer’s instructions, Acti-stain 670 phalloidin (Cytoskeleton, Inc.) was used as a control in an in vitro actin filament binding study. Actin filaments treated with DMSO (solvent blank negative control) were stained and observed for comparison. The actin filaments were visualized on an Olympus FV1000 confocal microscope. Pulldown assays were performed using alkyne-OF with azide-biotin (Click-iT protein reaction buffer kit; Thermo Fisher Scientific), according to the manufacturer’s instructions. […]

Aspergillus flavus 28445 = assay: MIC susceptibility testing; assay type: cell-based; set-up: key to MIC, 50% inhibition: -: indicates absence of isolates with 50% inhibition endpoint; details: CLSI M38-A2
Description: (§1) Occidiofungin was purified from a liquid culture of Burkholderia contaminans MS14 as previously described ([21]). MIC susceptibility testing was performed according to the CLSI M27-A3 and M38-A2 standards for the susceptibility testing of yeasts and filamentous fungi, respectively. S. cerevisiae deletion mutants were obtained from the commercially available BY4741 deletion library (Thermo Scientific).

Fusarium oxysporum 27718 = assay: MIC susceptibility testing; assay type: cell-based; set-up: key to MIC, 50% inhibition: -: indicates absence of isolates with 50% inhibition endpoint; details: CLSI M38-A2
Description: as §1

Rhizopus oryzae 28403 = assay: MIC susceptibility testing; assay type: cell-based; set-up: key to MIC, 50% inhibition: -: indicates absence of isolates with 50% inhibition endpoint; details: CLSI M38-A2
Description: as §1

Aspergillus flavus 28455 = assay: MIC susceptibility testing; assay type: cell-based; set-up: key to MIC, 50% inhibition: -: indicates absence of isolates with 50% inhibition endpoint; details: CLSI M38-A2
Description: as §1

[2] = test system: Aspergillus fumigatus 28435; assay: MIC susceptibility testing; assay type: cell-based; set-up: key to MIC, 50% inhibition: -: indicates absence of isolates with 50% inhibition endpoint; details: CLSI M38-A2
Description: as §1

Fusarium solani 28386 = assay: MIC susceptibility testing; assay type: cell-based; set-up: key to MIC, 50% inhibition: -: indicates absence of isolates with 50% inhibition endpoint; details: CLSI M38-A2
Description: as §1

Candida tropicalis 9624 = assay: MIC susceptibility testing; assay type: cell-based; set-up: key to MIC, 50% inhibition: -: indicates absence of isolates with 50% inhibition endpoint; details: CLSI M27-A3
Description: as §1

[3] = cited from earlier work
Description: Occidiofungin is a nonribosomally synthesized glycolipopeptide produced by the soil bacterium Burkholderia contaminans MS14 ([21]). It is a cyclic peptide with a base mass of 1,200 Da (Fig. 1) ([21]). Occidiofungin has a wide spectrum of activities against filamentous and nonfilamentous fungi and minimal toxicity in an animal system ([21], [22]). […] Occidiofungin, on the other hand, is well tolerated at 5 mg/kg or 20 mg/kg when administered intravenously or subcutaneously, respectively ([22], [25]). This dose is much higher than the MIC of occidiofungin against several fungal pathogens. ...

In the case of occidiofungin, the “effect on F-actin morphology” value [1] is reported as “the morphology of F-actin changed in the presence of occidiofungin in a dose-dependent manner”, the “effect on F-actin morphology” value ([1]; listed as native occidiofungin) is reported as “a high degree of aggregation of the filaments” and the “MIC, 50% inhibition” value (Aspergillus flavus 28445; 24 hours) is reported as 2 mg/L. The “MIC, 100% inhibition” value (Aspergillus flavus 28445; 24 hours) was 4 mg/L, the “MIC, 50% inhibition” value (Aspergillus flavus 28445; 48 hours) was “-” and the “MIC, 100% inhibition” value (Aspergillus flavus 28445; 48 hours) was 4 mg/L. The “MIC, 50% inhibition” value (Fusarium oxysporum 27718; 24 hours) was 2 mg/L, the “MIC, 100% inhibition” value (Fusarium oxysporum 27718; 24 hours) was 4 mg/L and the “MIC, 50% inhibition” value (Fusarium oxysporum 27718; 48 hours) was “-”. The “MIC, 100% inhibition” value (Fusarium oxysporum 27718; 48 hours) was 4 mg/L, the “MIC, 50% inhibition” value (Rhizopus oryzae 28403; 24 hours) was 4 mg/L and the “MIC, 100% inhibition” value (Rhizopus oryzae 28403; 24 hours) was 8 mg/L. The “MIC, 50% inhibition” value (Rhizopus oryzae 28403; 48 hours) was “-”, the “MIC, 100% inhibition” value (Rhizopus oryzae 28403; 48 hours) was 8 mg/L and the “MIC, 50% inhibition” value (Aspergillus flavus 28455; 24 hours) was 2 mg/L. For the same substance, the “MIC, 100% inhibition” value (Aspergillus flavus 28455; 24 hours) was 4 mg/L, the “MIC, 50% inhibition” value (Aspergillus flavus 28455; 48 hours) was “-” and the “MIC, 100% inhibition” value (Aspergillus flavus 28455; 48 hours) was 4 mg/L. The “MIC, 50% inhibition” value ([2]; 24 hours) was “-”, the “MIC, 100% inhibition” value ([2]; 24 hours) was 2 mg/L and the “MIC, 50% inhibition” value ([2]; 48 hours) was “-”. The “MIC, 100% inhibition” value ([2]; 48 hours) was 2 mg/L, the “MIC, 50% inhibition” value (Fusarium solani 28386; 24 hours) was 2 mg/L and the “MIC, 100% inhibition” value (Fusarium solani 28386; 24 hours) was 4 mg/L. For the same substance, the “MIC, 50% inhibition” value (Fusarium solani 28386; 48 hours) was “-”, the “MIC, 100% inhibition” value (Fusarium solani 28386; 48 hours) was 4 mg/L and the “MIC, 50% inhibition” value (Candida tropicalis 9624; 24 hours) was “-”. For the same substance, the “MIC, 100% inhibition” value (Candida tropicalis 9624; 24 hours) was 2 mg/L, the “MIC, 50% inhibition” value (Candida tropicalis 9624; 48 hours) was “-” and the “MIC, 100% inhibition” value (Candida tropicalis 9624; 48 hours) was 2 mg/L. The “blood cells and blood chemistry” value [3] was “no serious signs of toxicity”, the “toxicity at 5 mg/kg intravenous” value ([3]; intravenous, 5 mg/kg, mice) was “minimal induced toxicity” and the “well tolerated dose, intravenous” value ([3]; intravenous) was 5 mg/kg. For the same substance, the “blood chemistry and histopathology” value ([3]; mice, 5 mg/kg intravenous) was “a transient nonspecific stress response with no damage to organ tissues” and the “well tolerated dose, subcutaneous” value ([3]; subcutaneous) was 20 mg/kg.
